US20240091242A1, “LIPIDS THAT REDUCE LUNG DAMAGE, IMPROVE PULMONARY FUNCTION AND DECREASE PRO-INFLAMMATORY CYTOKINES” (Signpath Pharma, Inc., priority 2021, published 2024)

Experiments:
murine LPS ARDS model [1] = assay: BALF protein content and cell counts, murine LPS ARDS model; assay type: in vivo, mouse
Description: (§1) In the ARDS group, mice received Escherichia coli O111:B4 lipopolysaccharide (50 μg in 0.05 mL saline, i.t.), while, in the control group, the animals received an instillation of saline (0.05 mL, i.t.). For intratracheal instillation, mice were slightly anesthetized with isoflurane.
(§2) The lipid SPPCT-800 was dissolved in water (low dose—2 mg/ml; high dose—20 mg/ml). For the 24-hour study, two treatment approaches were used. Mice received a single dose of SPPCT-800 (200 mg/kg, per gavage) as prevention (30 minutes before the LPS instillation), or as a single dose of either 20 mg/kg or 200 mg/kg as therapy (3-hour after the LPS instillation). For the 72-hour study, mice received a total of 8 treatments of SPPCT-800 (200 mg/kg) starting at 3-hour after the LPS instillation. Disease progression in mice was assessed by the evaluation of pulmonary functions, blood oxygen saturation, and body weight change. On the terminal day of each study (24 hours or 72 hours), measurement of cytokine levels in the plasma and BALF, and histopathology evaluations were done.
Differential Cell Counts in BALF. The left lung was clamped while 0.9 mL of cold PBS 1×, Protease Inhibitor 1× (SigmaFast®) solution (3×300 μL) was injected so bronchoalveolar lavage fluid (BALF) from the right lobe of the lungs could be collected. The protein assay was performed according to the manufacturer's instruction BCA Protein Assay (Pierce™-#23227). Briefly, a dilution factor of 5 was used (1 part of BALF: 4 part of PBS 1×). 10 μL, of the diluted sample was added into the microplate wells. 200 μL of the working reagent was added into each well. The plate was covered, incubated at 37° C. for 30 minutes. After a cool-down period, the absorbance at 562 nm was rapidly measured using a monochromatic spectrophotometer (SpectraMAX ® plus—Molecular Devices). The total BALF protein content was reported by multiplying the protein concentration by the dilution factor, and then multiplying by the total of BALF volume collected.
Statistical Analysis. Results are expressed as means±SEM. Comparisons were made on normally distributed data using ANOVA, followed by a Fisher post hoc test to assess the difference between LPS+vehicle group with GraphPad Prism Software version 8.0 (San Diego, CA, USA). Differences were considered statistically significant when P values were less than 0.05. (* Shown difference versus Sham animals and # shown difference versus LPS+Vehicle group. * Means P<0.05, ** P<0.01, *** P<0.001 while # means P<0.05, ##P<0.01 and ###P<0.001).

murine LPS ARDS model [2] = assay: Overall efficacy in the murine LPS ARDS model; assay type: in vivo, mouse
Description: To investigate the role of the lipids of the present invention, such as SPPCT-800, as a treatment for ARDS, the inventors used a murine LPS model to measure histologic changes, lung and body weights, oxygen blood saturations and other pulmonary function parameters, BALF protein and cell counts, and pro-inflammatory cytokine levels in the plasma and BALF.
as §1
as §2, with “On the terminal day of each study (24 hours or 72 hours), measurement of cytokine levels in the plasma and BALF, and histopathology evaluations were done.” left out

CCCCCCCCCCCCCC(=O)OCC(COP(=O)([O-])OCC(COC(=O)CCC)OC(=O)CCC)OC(=O)CCCCCCCCCCCCC.CCCCCCCCCCCCCC(=O)OCC(COP(=O)([O-])OCC(COC(=O)CCC)OC(=O)CCC)OC(=O)CCCCCCCCCCCCC.[Mg+2] (stereo not drawn) [SPPCT-800]
BALF protein content (murine LPS ARDS model [1]; 24 hours after LPS, single dose given as a preventive, P<0.05): significant reduction
BALF protein levels (murine LPS ARDS model [1]; at 72 hours, multidose treatment): major reductions
BALF neutrophil counts (murine LPS ARDS model [1]; at 72 hours, multidose treatment, P=0.1493, not statistically significant): reductions
BALF total cell count (murine LPS ARDS model [1]; at 72 hours, multidose treatment, P=0.1714, not statistically significant): reductions
efficacy against ARDS (murine LPS ARDS model [2]; all three studies, best results in the 72-hour study): effective
severe damage to the lung (murine LPS ARDS model [2]; single dose of 200 mg/kg, given 30 minutes before LPS challenge): significantly reduces
